Assay results published in ChEMBL document CHEMBL1154822, “Synthesis and antiproliferative activity of 7-azaindirubin-3'-oxime, a 7-aza isostere of the natural indirubin pharmacophore” (J Nat Prod, 2009).

What was measured:
Assay type in all cases: functional
BT-549 [1] = assay: Cytotoxicity against human BT549 cells assessed as cell growth at 1 uM after 1 to 11 days by MTT assay; settings: read-out: Activity
T47D [2] = assay: Cytotoxicity against human T47D cells assessed as cell growth at 0.1 uM after 1 to 11 days by MTT assay; settings: read-out: Activity
SF-268 = assay: Cytotoxicity against human SF268 cells assessed as cell growth at 0.1 uM after 1 to 11 days by MTT assay; settings: read-out: Activity
T47D [3] = assay: Cytotoxicity against human T47D cells assessed as cell growth at 1 uM after 1 to 11 days by MTT assay; settings: read-out: Activity
DU-145 = assay: Cytotoxicity against human DU145 cells assessed as cell growth at 1 uM after 1 to 11 days by MTT assay; settings: read-out: Activity
A498 = assay: Cytotoxicity against human A498 cells assessed as cell growth at 100 uM after 1 to 11 days by MTT assay; settings: read-out: Activity
HCT-116 = assay: Cytotoxicity against human HCT116 cells assessed as cell growth at 10 uM after 1 to 11 days by MTT assay; settings: read-out: Activity
BT-549 [4] = assay: Cytotoxicity against human BT549 cells assessed as cell growth at 10 uM after 1 to 11 days by MTT assay; settings: read-out: Activity
SNB-75 = assay: Cytotoxicity against human SNB75 cells assessed as cell growth at 1 uM after 1 to 11 days by MTT assay; settings: read-out: Activity
A549 = assay: Cytotoxicity against human A549 cells assessed as cell growth at 10 uM after 1 to 11 days by MTT assay; settings: read-out: Activity
SK-MEL-28 = assay: Cytotoxicity against human SK-MEL-28 cells assessed as cell growth at 1 mM after 1 to 11 days by MTT assay; settings: read-out: Activity
UO-31 = assay: Cytotoxicity against human UO31 cells assessed as cell growth at 100 uM after 1 to 11 days by MTT assay; settings: read-out: Activity
SK-MEL-5 = assay: Cytotoxicity against human SK-MEL-5 cells assessed as cell growth at 100 uM after 1 to 11 days by MTT assay; settings: read-out: Activity
MCF7 = assay: Cytotoxicity against human MCF7 cells assessed as cell growth at 10 uM after 1 to 11 days by MTT assay; settings: read-out: Activity
KM12 = assay: Cytotoxicity against human KM12 cells after 1 to 11 days by MTT assay
OVCAR-4 [5] = assay: Cytotoxicity against human OVCAR4 cells assessed as cell growth at 10 uM after 1 to 11 days by MTT assay; settings: read-out: Activity
HCC 2998 = assay: Cytotoxicity against human HCC2998 cells assessed as cell growth at 0.1 uM after 1 to 11 days by MTT assay; settings: read-out: Activity
HCT-15 [6] = assay: Cytotoxicity against human HCT15 cells assessed as cell growth at 100 uM after 1 to 11 days by MTT assay; settings: read-out: Activity
786-0 = assay: Cytotoxicity against human 786-0 cells assessed as cell growth at 0.1 uM after 1 to 11 days by MTT assay; settings: read-out: Activity
SR [7] = assay: Cytotoxicity against human SR cells assessed as cell growth at 10 uM after 1 to 11 days by MTT assay; settings: read-out: Activity
SF-539 = assay: Cytotoxicity against human SF539 cells assessed as cell growth at 1 uM after 1 to 11 days by MTT assay; settings: read-out: Activity
NCI-H322M = assay: Cytotoxicity against human NCI-H322M cells after 1 to 11 days by MTT assay
HT-29 = assay: Cytotoxicity against human HT-29 cells assessed as cell growth at 1 mM after 1 to 11 days by MTT assay; settings: read-out: Activity
SW-620 = assay: Cytotoxicity against human SW620 cells after 1 to 11 days by MTT assay
NCI/ADR-RES [8] = assay: Cytotoxicity against human NCI/ADR-RES cells assessed as cell growth at 10 uM after 1 to 11 days by MTT assay; settings: read-out: Activity
NCI-H23 = assay: Cytotoxicity against human NCI-H23 cells assessed as cell growth at 10 uM after 1 to 11 days by MTT assay; settings: read-out: Activity
M14 [9] = assay: Cytotoxicity against human M14 cells assessed as cell growth at 1 uM after 1 to 11 days by MTT assay; settings: read-out: Activity
LOX IMVI = assay: Cytotoxicity against human LOXIMVI cells assessed as cell growth at 0.1 uM after 1 to 11 days by MTT assay; settings: read-out: Activity
NCI-H226 [10] = assay: Cytotoxicity against human NCI-H226 cells assessed as cell growth at 1 uM after 1 to 11 days by MTT assay; settings: read-out: Activity
SR [11] = assay: Cytotoxicity against human SR cells assessed as cell growth at 1 mM after 1 to 11 days by MTT assay; settings: read-out: Activity
SN12C = assay: Cytotoxicity against human SN12C cells assessed as cell growth at 0.1 uM after 1 to 11 days by MTT assay; settings: read-out: Activity
RXF 393 = assay: Cytotoxicity against human […] cells after 1 to 11 days by MTT assay
SK-OV-3 = assay: Cytotoxicity against human SKOV3 cells assessed as cell growth at 1 mM after 1 to 11 days by MTT assay; settings: read-out: Activity
SNB-19 = assay: Cytotoxicity against human SNB19 cells assessed as cell growth at 100 uM after 1 to 11 days by MTT assay; settings: read-out: Activity
NCI/ADR-RES [12] = assay: Cytotoxicity against human NCI/ADR-RES cells after 1 to 11 days by MTT assay
CCRF-CEM = assay: Cytotoxicity against human CCRF-CEM cells assessed as cell growth at 0.1 uM after 1 to 11 days by MTT assay; settings: read-out: Activity
Malme-3M = assay: Cytotoxicity against human MALME-3M cells assessed as cell growth at 0.1 uM after 1 to 11 days by MTT assay; settings: read-out: Activity
PC-3 = assay: Cytotoxicity against human PC3 cells after 1 to 11 days by MTT assay
COLO 205 = assay: Cytotoxicity against human COLO205 cells assessed as cell growth at 100 uM after 1 to 11 days by MTT assay; settings: read-out: Activity
OVCAR-4 [13] = assay: Cytotoxicity against human OVCAR4 cells assessed as cell growth at 100 uM after 1 to 11 days by MTT assay; settings: read-out: Activity
M14 [14] = assay: Cytotoxicity against human M14 cells assessed as cell growth at 10 uM after 1 to 11 days by MTT assay; settings: read-out: Activity
NCI-H226 [15] = assay: Cytotoxicity against human NCI-H226 cells assessed as cell growth at 0.1 uM after 1 to 11 days by MTT assay; settings: read-out: Activity
HOP-92 = assay: Cytotoxicity against human HOP92 cells assessed as cell growth at 10 uM after 1 to 11 days by MTT assay; settings: read-out: Activity
HCT-15 [16] = assay: Cytotoxicity against human HCT15 cells assessed as cell growth at 0.1 uM after 1 to 11 days by MTT assay; settings: read-out: Activity
[17] = read-out: LC50 (the source's name)

O=C1Nc2ncccc2/C1=C1/Nc2ccccc2/C1=N\O
growth at 1 µM (BT-549 [1]): 70% | growth at 0.1 µM (T47D [2]): 100% | growth at 0.1 µM (SF-268): 100% | growth at 1 µM (T47D [3]): 86% | growth at 1 µM (DU-145): 102% | growth at 100 µM (A498): 18% | growth at 10 µM (HCT-116): 108% | growth at 10 µM (BT-549 [4]): 69% | growth at 1 µM (SNB-75): 90% | growth at 10 µM (A549): 91% | growth at 1000 µM (SK-MEL-28): 47% | growth at 100 µM (UO-31): 3% | growth at 100 µM (SK-MEL-5): 49% | growth at 10 µM (MCF7): 86% | GI50 (KM12): 0.77 µM | TGI (KM12): > 100 µM | CC50 (KM12; [17]): > 100 µM | growth at 10 µM (OVCAR-4 [5]): 96% | growth at 0.1 µM (HCC 2998): 93% | growth at 100 µM (HCT-15 [6]): 27% | growth at 0.1 µM (786-0): 119% | growth at 10 µM (SR [7]): 147% | growth at 1 µM (SF-539): 91% | GI50 (NCI-H322M): 1.35 µM | TGI (NCI-H322M): > 100 µM | CC50 (NCI-H322M; [17]): > 100 µM | growth at 1000 µM (HT-29): 48% | GI50 (SW-620): 7.45 µM | TGI (SW-620): > 100 µM | CC50 (SW-620; [17]): > 100 µM | growth at 10 µM (NCI/ADR-RES [8]): 99% | growth at 10 µM (NCI-H23): 83% | growth at 1 µM (M14 [9]): 95% | growth at 0.1 µM (LOX IMVI): 98% | growth at 1 µM (NCI-H226 [10]): 84% | growth at 1000 µM (SR [11]): 26% | growth at 0.1 µM (SN12C): 93% | GI50 (RXF 393): 1.22 µM | TGI (RXF 393): > 100 µM | CC50 (RXF 393; [17]): > 100 µM | growth at 1000 µM (SK-OV-3): 8% | growth at 100 µM (SNB-19): 78% | GI50 (NCI/ADR-RES [12]): > 100 µM | TGI (NCI/ADR-RES [12]): > 100 µM | CC50 (NCI/ADR-RES [12]; [17]): > 100 µM | growth at 0.1 µM (CCRF-CEM): 94% | growth at 0.1 µM (Malme-3M): 94% | GI50 (PC-3): 6.82 µM | TGI (PC-3): > 100 µM | CC50 (PC-3; [17]): > 100 µM | growth at 100 µM (COLO 205): 59% | growth at 100 µM (OVCAR-4 [13]): 48% | growth at 10 µM (M14 [14]): 86% | growth at 0.1 µM (NCI-H226 [15]): 86% | growth at 10 µM (HOP-92): 62% | growth at 0.1 µM (HCT-15 [16]): 95%
